Measured values: patent publication US20130053372A1, “5-HT RECEPTOR MODULATORS” (Cambridge Enterprise Limited, priority 2010, published 2013)
Counter-ions that a name gives are not always drawn.

Key:
[1] = test system: chronically hypoxic murine model of pulmonary arterial hypertension (PAH); test: Effect on development of hypoxia-induced pulmonary hypertension (haemodynamics, right ventricular hypertrophy); assay type: in vivo, Mice (C57B/6J); conditions: mice
Protocol: Protocol for the Determination of the Effect on the Development of Hypoxia-Induced Pulmonary Hypertension.
Mice (C57B/6J, male, 2 months) were exposed to 14 days of hypobaric hypoxia (equivalent to 10% O2) or normoxia, as described in MacLean, M. R. et al. Circulation 2008, 117, 2928-2937 and MacLean, M. R. et al. Circulation 2004,109, 2150-2155. Mice were dosed either with vehicle (dH2O) or 82 (15 mg/kg/day) for 14 days. Haemodynamic Measurements: Heart rate, right ventricular pressure and systemic arterial pressure were measured and analysed as described in MacLean, M. R. et al. Circulation 2008, 117, 2928-2937 and MacLean, M. R. et al. Circulation 2004,109, 2150-2155. Briefly, right ventricular pressure was measured via transdiaphragmatic right heart catheterisation and systemic arterial pressure was measured via cannulation of the left common carotid artery. Lung Histology: Sagittal sections of lung were elastica-Van Gieson stained and microscopically assessed for the muscularisation of pulmonary arteries (<80 μm external diameter) in a blinded fashion as described in MacLean, M. R. et al. Circulation 2008, 117, 2928-2937 and MacLean, M. R. et al. Circulation 2004,109, 2150-2155. Remodelled arteries were confirmed by the presence of a double elastic laminae.
(§1) Lung sections from 5 mice for each group were studied. Approximately 150 arteries from each lung section (˜750 arteries in total for each group) were assessed. Right Ventricular Hypertrophy: Right ventricular hypertrophy (RVH) was assessed by weight measurement of the right ventricular free wall (RV) and left ventricle plus septum (LV+S). The ratio expressed is RV/LV+S. RVH measurements from 6 to 8 mice for each group were assessed. Myography: Small pulmonary arteries (PAs) of ˜350 μm internal diameter (i.d.) were set up on wire myographs as described in MacLean M. R. et al. J Pharmacol Exp Ther. 2005, 313, 539-548. Briefly, PAs from normoxic mice were set up at tensions equivalent to their mean in vivo right ventricular pressure (RVP) (12-15 mmHg), whereas PAs from hypoxic mice were set up at tensions equivalent to the elevated in vivo mean pressures observed after exposure to hypoxia (25-30 mmHg). After a 45-min equilibration period, the response to 50 mM KCl was determined. Cumulative response curves were constructed in the presence and absence of the antagonist which was allowed a 45-min equilibrium period before constructing the curves.
The effects of 82 on a chronically hypoxic murine model of pulmonary arterial hypertension (PAH) were assessed. Four small groups of n=3 or 4 were used. The results are illustrated in FIGS. 13-17 (see also description of figures, above).

rat r5-HT1B receptors = target: T1, rat r5-HT1B receptors (Rattus norvegicus, UniProt P28564); test: Binding affinity at rat r5-HT1B receptors, rat cerebral cortex membrane binding (RBA); conditions: value in parentheses; monohydrochloride salt
T1 construct: from tissue
T1 sequence (P28564 whole entry): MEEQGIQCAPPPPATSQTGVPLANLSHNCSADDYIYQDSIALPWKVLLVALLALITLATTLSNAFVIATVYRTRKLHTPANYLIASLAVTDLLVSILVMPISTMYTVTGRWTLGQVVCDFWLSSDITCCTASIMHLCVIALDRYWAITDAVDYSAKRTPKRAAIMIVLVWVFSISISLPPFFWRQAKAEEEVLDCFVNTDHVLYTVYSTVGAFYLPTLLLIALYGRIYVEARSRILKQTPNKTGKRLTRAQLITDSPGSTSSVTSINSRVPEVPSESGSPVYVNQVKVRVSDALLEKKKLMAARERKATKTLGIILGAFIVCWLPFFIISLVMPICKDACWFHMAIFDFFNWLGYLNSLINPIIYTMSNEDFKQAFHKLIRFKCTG
Protocol: Binding Protocol for Determination of Affinity at rat r5-HT 1B Receptors (RBA)
This binding affinity protocol was performed according to standard conditions disclosed in Eur. J. Pharmacol. 1985, 118, 1-12.

[2] = test system: intralobar pulmonary arteries from hypoxic mice; test: Myography of pulmonary arteries: vasoreactivity to 5-HT; parameters: species or system Mice (C57B/6J); conditions: 15 mg/kg/day
Protocol: as §1

## CN1CCN(c2nc(N3CCN(c4ccccc4)C3=O)cc3ccoc23)CC1 [Example 82, 1-(7-(4-Methylpiperazin-1-yl)furo[2,3-c]pyridin-5-yl)-3-phenylimidazolidin-2-one hydrochloride]
[1]; 15 mg/kg/day
  effect on heart rate (HR): no significant effect
  effect on mean systemic arterial pressure (mSAP): no significant effect
[1]; 15 mg/kg/day for 14 days, hypobaric hypoxia
  hypoxia-induced increases in systolic right ventricular pressure (sRVP): significantly attenuated
[1]; 15 mg/kg/day for 14 days, hypobaric hypoxia, RV/LV+S
  hypoxia-induced right ventricular hypertrophy (RVH): significantly attenuated
Rat r5-HT1B receptors
  IC50: 110 nM
[2]
  effect on the increase in contractility to 5HT in intralobar pulmonary arteries from hypoxic mice: no effect
